Experimental data from patent publication EP4782434A1, “N-SULFONYL CARBOXAMIDE COMPOUND, AND PREPARATION METHOD THEREFOR AND USE THEREOF” (Nutshell Therapeutics (Shanghai) Co., Ltd., priority 2023, dated 2025).
pIC50: −log10 of the molar value.

How the values were obtained:
[1] = system: Theta-mediated end joining (TMEJ) process in HEK293T cells; assay: TMEJ reporter assay (NanoGlo luciferase); assay type: cell-based; conditions: Homo sapiens, HEK-293T, HEK293T cells electroporated with TMEJ substrate, 24 hours
Method: The inhibitory effect of the compounds on the Theta-mediated end joining (TMEJ) process was evaluated.
(1) HEK293T cells were cultured in DMEM supplemented with 10% heat-inactivated fetal bovine serum (FBS) and 1% penicillin-streptomycin (PS). (2) Prior to startup, the Neon transfection system was disinfected, and E2 and R buffers were equilibrated to room temperature. (3) Culture medium without antibiotics was pre-warmed. (4) Cells in the flask reaching 80-90% confluency were trypsinized, neutralized with culture medium, centrifuged, and counted. (5) For transfection using a 100 µL electroporation tip, 2 × 10^6 cells were taken, washed once with DPBS (without Mg^2+ and Ca^2+), centrifuged at 1000 rpm for 5 min, and the supernatant was discarded. The number of cells and volume may be increased as required. (6) The Neon system was set up; a Neon tube was inserted into the Neon pipette and E2 buffer was added. (7) 10 µg of TMEJ substrate was added to 100 µL of R solution; the volume may be increased as required. (8) Cells were resuspended in DNA buffer, and electroporation was initiated according to the following parameters:
(9) The cells were loaded into antibiotic-free culture medium and mixed gently. (10) Steps (8)-(9) were repeated as necessary, and cells were seeded into 384-well plates at a density of 40,000 cells/well in 40 µL of culture medium. (11) The plates were incubated in a humidified CO2 incubator at 37°C for 24 hours. (12) NanoGlo reagent was warmed to room temperature, and NanoGlo buffer was mixed with the substrate at a ratio of 50:1. (13) The cell culture plates were equilibrated at room temperature for 10 minutes. (14) 40 µL of NanoGlo substrate buffer was added to each well, followed by shaking at 300 rpm for 3 minutes protected from light. (15) Signals were read via a BMG PHERAstar FSX.

Polθ ATPase = biological target: T1, Polθ ATPase (Homo sapiens, UniProt O75417); assay: Polθ ATPase activity assay (ADP-Glo Kinase Assay kit); assay type: biochemical; conditions: truncated POLQ-N protein (aa 1-894) 1 nM, 50 nM ssDNA, 50 µM ATP
T1 construct: purified truncated POLQ-N protein (aa 1-894, N-terminal 6-His tag); 6-His (N)
T1 sequence (O75417 1-894): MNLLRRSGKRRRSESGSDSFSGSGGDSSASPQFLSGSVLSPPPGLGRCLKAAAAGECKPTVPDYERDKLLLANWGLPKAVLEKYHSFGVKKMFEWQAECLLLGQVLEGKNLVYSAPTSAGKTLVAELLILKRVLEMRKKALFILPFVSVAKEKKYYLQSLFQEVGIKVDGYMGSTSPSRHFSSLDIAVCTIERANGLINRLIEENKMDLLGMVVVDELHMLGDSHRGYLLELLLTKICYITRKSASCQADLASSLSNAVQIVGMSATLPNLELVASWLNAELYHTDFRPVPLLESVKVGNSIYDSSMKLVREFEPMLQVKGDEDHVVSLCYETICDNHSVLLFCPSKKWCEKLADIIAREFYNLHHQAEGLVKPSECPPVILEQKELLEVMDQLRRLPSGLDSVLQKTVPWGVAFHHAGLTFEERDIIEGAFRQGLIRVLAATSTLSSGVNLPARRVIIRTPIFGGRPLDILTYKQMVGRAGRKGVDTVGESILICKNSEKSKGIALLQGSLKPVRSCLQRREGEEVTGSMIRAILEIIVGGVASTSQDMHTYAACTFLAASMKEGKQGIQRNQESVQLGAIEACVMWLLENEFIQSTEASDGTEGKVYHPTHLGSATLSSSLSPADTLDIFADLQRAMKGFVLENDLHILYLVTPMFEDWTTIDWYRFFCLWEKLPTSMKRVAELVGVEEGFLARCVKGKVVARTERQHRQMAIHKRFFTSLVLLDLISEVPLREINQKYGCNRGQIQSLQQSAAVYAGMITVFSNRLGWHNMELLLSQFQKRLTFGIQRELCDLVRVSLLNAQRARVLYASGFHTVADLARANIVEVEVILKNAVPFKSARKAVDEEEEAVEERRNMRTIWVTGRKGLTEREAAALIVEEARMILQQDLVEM
Method: The inhibitory efficiency of the compounds of formula (I) against Polθ ATPase activity was determined using the ADP-Glo Kinase Assay kit (Promega, V9101). […] The starting (final) concentration was 100 nM, followed by a 3-fold serial dilution for a total of 10 concentration points in duplicate (n=2). 5 μL of purified […], N-terminal 6-His tag) was added to each well. After centrifugation at 1000 rpm for 1 minute, the plate was incubated at 25°C for 10 minutes. 5 μL of substrate reaction solution (containing ATP & ssDNA) was added to each well, and the reaction was carried out at 25°C for 60 minutes. 5 μL of ADP-Glo Reagent was added to each well. After centrifugation at 1000 rpm for 1 minute, the plate was incubated at 25°C for 40 minutes. 10 μL of detection solution was added to each well. After centrifugation at 1000 rpm for 1 minute, the plate was incubated at 25°C for 40 minutes. Luminescence signals were recorded using a microplate reader (BMG, PHERAstar FSX). The final reaction system contained 1 nM of POLQ-N enzyme; 50 nM of ssDNA ([NT]); 50 μM of ATP; and 1% DMSO. The inhibition percentage (%) of the compound at each concentration was calculated using the RFU values normalized against the control wells within each assay plate. Table 1: Inhibitory activity of compounds against Polθ ATPase

DLD-1 BRCA2-/- cells = assay: DLD-1 BRCA2-/- cell proliferation assay (CellTiter-Glo, 10 days incubation); assay type: cell-based; conditions: Homo sapiens, 240 h, DLD-1 BRCA2-/- cell line, total incubation period of 10 days, read-out: DLD1 BRCA2^-/- IC50
From the text: The anti-proliferative effect of the compounds on the human colorectal adenocarcinoma cell line DLD-1 BRCA2^-/- method.
• DLD-1 (purchased from ATCC, Cat. No.: CCL-221, Batch No.: 70033255); • RPMI1640 (purchased from Invitrogen, Cat. No.: 11875-085); • 0.25% Trypsin-EDTA (purchased from Invitrogen, Cat. No.: 25200-072); • Penicillin-Streptomycin solution (purchased from Hyclone, Cat. No.: SV30010); • FBS (purchased from BI, Cat. No.: 04-002-1A); • DMSO (purchased from Sigma, Cat. No.: D4540-1L); • 96-well plate (purchased from Corning, Cat. No.: CLS3903); • CellTiter-Glo reagent (purchased from Promega, Cat. No.: G7558).
The anti-proliferative effect of the compounds on a human colorectal adenocarcinoma cell line was evaluated using an ATP quantification method, wherein the measured activity correlates well with the number of viable cells. The genetically edited cell line DLD-1 BRCA2^-/- was cultured in RPMI 1640 medium (Invitrogen, 11875-085) supplemented with 10% (v/v) fetal bovine serum (BI, 04-002-1A). The cell line was cultured according to the standard instructions of the American Type Culture Collection (ATCC) and identified via short tandem repeat (STR) genotyping.
In the proliferation assay, cells were harvested and resuspended in cell culture medium. Cell density was determined using a cell counter. An appropriate volume of cell suspension was aspirated from the centrifuge tube to prepare a plating working solution (150 cells/100 µL for the DLD-1 BRCA2^-/- cell line). 100 µL of the cell suspension was seeded into each well of a 96-well plate (Corning, 3603) and incubated overnight in an incubator. The diluted test compound solutions were added to the wells. On the fourth and seventh days of compound incubation, the medium was replaced with fresh culture medium, and the compounds were re-administered, for a total incubation period of 10 days. Following incubation, the cell culture plates were removed and equilibrated to room temperature. 100 µL of CellTiter-Glo (Promega, G7558) was added to each well, and the plate was incubated at room temperature for 30 minutes. Data were read using a microplate reader (PerkinElmer, Enspire) in 96-well luminescence mode. Data analysis, curve fitting, and reporting were performed using the dose-response one-site 205 model of IDBS XL fit. Table 2: Proliferation inhibitory activity of compounds against DLD-1 BRCA2-/- cells

| Compound | pIC50 [1] | pIC50 (Polθ ATPase; class symbols) | pIC50 (Polθ ATPase; specific values) | pIC50 (DLD-1 BRCA2-/- cells) |
| --- | --- | --- | --- | --- |
| [2H]C([2H])([2H])Oc1cnc(C(F)F)cc1-c1cc(C([2H])([2H])[2H])ccc1C(=O)NS(=O)(=O)Cc1ccc([C@H](C)OC([2H])([2H])[2H])cc1 [cpd-18, (S)-2-(2-(Difluoromethyl)-5-(methoxy-d3)pyridin-4-yl)-N-((4-(1-(methoxy-d3)ethyl)benzyl)sulfonyl)-4-(methyl-d3)benzamide] | 8.89 | ≥ 8.70 | 8.85 | 7.77 |
| [2H]C([2H])([2H])O[C@@H](C)c1ccc(CS(=O)(=O)NC(=O)c2ccc(C)cc2-c2cc(C(F)F)ncc2OC)cc1 [cpd-19, (S)-2-(2-(Difluoromethyl)-5-methoxypyridin-4-yl)-N-((4-(1-(methoxy-d3)ethyl)benzyl)sulfonyl)-4-methylbenzamide] | 8.70 | ≥ 8.70 | 9.35 | 7.68 |
| [2H]C([2H])([2H])O[C@@H](C)c1ccc(CS(=O)(=O)NC(=O)c2ccc(C([2H])([2H])[2H])cc2-c2cc(C(F)F)c(F)cc2OC)cc1 [cpd-21, (S)-5'-(Difluoromethyl)-4'-fluoro-2'-methoxy-N-((4-(1-(methoxy-d3)ethyl)benzyl)sulfonyl)-5-(methyl-d3)-[1,1'-biphenyl]-2-carboxamide] | 8.64 | ≥ 8.70 | 8.82 | 8.28 |
| [2H]c1c([2H])c([C@H](C)OC([2H])([2H])[2H])c([2H])c([2H])c1CS(=O)(=O)NC(=O)c1ccc(C([2H])([2H])[2H])cc1-c1cc(Cl)ncc1OC [cpd-22, (S)-2-(2-Chloro-5-methoxypyridin-4-yl)-N-(4-(1-(methoxy-d3)ethyl)(phenyl-2,3,5,6-d4)methylsulfonyl)-4-(methyl-d3)benzamide] | 8.89 | ≥ 8.70 | 8.96 | 7.32 |
